# Literature values in paper PMC6270667, “Loddigesiinols G–J: α-Glucosidase Inhibitors from Dendrobium loddigesii” (Molecules, 2014).
# Target: α-glucosidase (Saccharomyces cerevisiae, UniProt P53341)
# Parameters: method as in PMID 16478243
# Conditions: reported in the literature
# Sequence of α-glucosidase (P53341 whole entry): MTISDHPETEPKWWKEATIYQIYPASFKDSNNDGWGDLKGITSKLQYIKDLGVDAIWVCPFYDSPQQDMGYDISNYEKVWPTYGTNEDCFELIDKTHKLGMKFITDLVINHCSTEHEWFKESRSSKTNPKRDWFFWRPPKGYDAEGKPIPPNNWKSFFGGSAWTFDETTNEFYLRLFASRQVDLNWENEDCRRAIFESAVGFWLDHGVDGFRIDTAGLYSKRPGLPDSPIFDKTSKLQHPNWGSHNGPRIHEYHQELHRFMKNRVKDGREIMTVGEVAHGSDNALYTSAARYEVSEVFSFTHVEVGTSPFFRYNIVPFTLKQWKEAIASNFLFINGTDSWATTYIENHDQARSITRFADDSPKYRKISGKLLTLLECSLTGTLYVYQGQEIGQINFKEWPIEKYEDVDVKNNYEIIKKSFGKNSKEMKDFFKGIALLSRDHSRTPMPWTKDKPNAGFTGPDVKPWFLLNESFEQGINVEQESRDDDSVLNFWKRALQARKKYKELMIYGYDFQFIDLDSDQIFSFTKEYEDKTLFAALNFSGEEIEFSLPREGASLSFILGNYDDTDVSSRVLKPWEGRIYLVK
smiles,measurement,value
"Oc1ccc(/C=C/c2cc(O)cc(O)c2)cc1 [trans-Resveratrol, trans-resveratrol]",α-glucosidase inhibitory effect compared with the clinical drug acarbose,more potent inhibitory effect than the clinical drug acarbose
